In data set [1] the target is T1, human mitochondrial WARS2 (Homo sapiens, UniProt Q9UGM6).
T1 construct: GST (inferred from GSH-bead purification; made in house; own inference)
T1 sequence (Q9UGM6 19-360): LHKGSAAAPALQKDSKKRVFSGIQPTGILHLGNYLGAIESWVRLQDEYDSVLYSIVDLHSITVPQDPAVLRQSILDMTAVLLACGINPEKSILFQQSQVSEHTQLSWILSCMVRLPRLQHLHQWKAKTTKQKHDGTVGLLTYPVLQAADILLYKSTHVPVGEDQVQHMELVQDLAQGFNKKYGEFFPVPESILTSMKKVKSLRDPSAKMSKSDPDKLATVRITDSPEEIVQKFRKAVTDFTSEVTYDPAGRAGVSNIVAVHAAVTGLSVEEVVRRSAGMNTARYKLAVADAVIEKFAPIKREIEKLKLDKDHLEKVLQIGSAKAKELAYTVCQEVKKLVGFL
Kind of data set: WARS2 AMP-Glo enzyme assay. It counts as biochemical. The settings on record: indolmycin 10 micromolar; enzyme 200 nM; 37° C. one hour. As for the experimental part: (§1) The WARS and WARS2 enzyme assay was performed using an ATP depletion assay based on a chemilumines optimized with the AMP-Glo™ reagent (Promega) using 96-well format assay. Reaction buffer contained 25 mM Tris-HCL pH7.2, 10 mM MgCl2, 50 mM KCl, 2.5 mM dithiothreitol, 0.1 mg/mL bovine serum albumin, 0.2 mM spermine, 10 U/mL pyrophosphatase and enzyme concentration used was 200 nM. Substrate concentrations were as follows: L-tryptophan 100 μM, bulk E. coli tRNA (Sigma) 200 μg/mL and ATP 100 μM. Reaction was carried out at 37° C. for one hour, followed by adding reagent I (AMP-glo kit). The plate was incubated at room temperature for another hour. At the end of the hour the AMP detection solution was added to all the samples and incubated for one hour at room temperature. Data was collected by measuring the luminescence with the Infinite M200 microplate Reader (Tecan). Indolmycin was added at 10 micromolar concentration where indicated.

Another data set has as its target T2, human cytosolic WARS (Homo sapiens, UniProt P23381).
T2 sequence (P23381 1-471): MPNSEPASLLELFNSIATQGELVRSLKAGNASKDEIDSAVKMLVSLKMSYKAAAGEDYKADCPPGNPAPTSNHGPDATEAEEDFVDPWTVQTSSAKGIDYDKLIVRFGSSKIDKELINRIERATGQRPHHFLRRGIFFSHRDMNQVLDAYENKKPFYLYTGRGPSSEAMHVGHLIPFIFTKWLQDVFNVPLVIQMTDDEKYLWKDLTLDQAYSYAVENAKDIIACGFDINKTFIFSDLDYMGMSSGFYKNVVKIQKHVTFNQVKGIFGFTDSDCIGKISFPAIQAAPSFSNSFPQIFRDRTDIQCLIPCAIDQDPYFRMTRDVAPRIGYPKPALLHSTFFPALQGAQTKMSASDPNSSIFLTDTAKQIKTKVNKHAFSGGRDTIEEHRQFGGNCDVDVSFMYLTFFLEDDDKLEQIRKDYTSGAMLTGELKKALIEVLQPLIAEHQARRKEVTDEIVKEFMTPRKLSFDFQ
Kind of data set: WARS AMP-Glo enzyme assay. It counts as biochemical. To be noted: indolmycin 10 micromolar; enzyme 200 nM; 37° C. one hour. As for the experimental part: as §1

The test system of a further data set is WARS secretion. Kind of data set: WARS secretion in HUVEC cell media. In kind it is cell-based, human. The settings on record: HUVEC cells. As to the method: Human embryonic kidney (HEK) 293 cells were maintained in DMEM supplemented with 10% foetal calf serum and 100 U/ml penicillin and 100 μg/ml streptomycin. Human umbilical vein endothelial (HUVEC) cells and medium (EBM- and EBM-2 single Quats) were purchased from Lonza and used prior to passage 7. For plasmid transfections (for HEK293), cells were seeded a day before at 70% confluence and lipofectamine […] (InvitroGene) transfection reagents were used according to the company's instruction. For HUVEC transfection, Polyplus jetPEI-HUVEC transfection reagent (POLYPLUS-TRANSFECTION Inc. New York) was used according to the company's instruction. For gene transfer, HUVEC were grown to 80% confluence in 6-well plates or T75 flasks. Transduction of cells was performed with a multiplicity of infection (MOI) of 200 plaque-forming units (pfu) in a total volume of 1 ml (6-well plates) or 10 ml (T75 flasks) in HUVEC growth medium. […]
HUVEC cells were seeded in 6-well plates. […] The knockdown efficacy could not be determined by western blot since no antibody against WARS2 can detect endogenous WARS2, although two anti-WARS2 antibodies we made can detect WARS2 in lysates from cells expressing WARS2-flag. […]

In the next data set the test system is human WARS2 mRNA. Nature of the data set: siWARS2 knock down in HEK 293 (QPCR). It counts as cell-based. The settings on record: non targeting control = 1; for WARS2 mRNA expression, Experiment 1 / WARS2 mRNA expression, Experiment 2 / WARS2 mRNA expression, Experiment 3 / WARS2 mRNA expression, Experiment 4 / WARS2 mRNA expression, Experiment 5: 120 nM siRNA, QPCR normalized to GAPDH (ddCt); for WARS2 mRNA expression, Average: average of 5 experiments. As to the method: HEK cells were seeded the day before transfection on 10 cm dish. At a density of ˜50%, transfection was performed using RNAimax (manufacturer's protocol). siRNA was prepared by using a mixture of 120 nM siRNA and 20 μl lipofectamin RNAimax in 1 ml OPTIMEM. Cells were incubated, washed 1× with PBS, and then covered with 5 ml OPTIMEM and the lipofectamin/siRNA mixture added dropwise. Cells were incubated (6 h) and media then changed to (DMEM/10% FBS). RNA was extracted as per protocol (Qiagen). RNA quantification was assessed using Nanodrop and the quality was determined based on OD ratio 260 nm/280 nm. Reverse transcription was performed using 1 μg RNA (Biorad iScript™ cDNA synthesis protocol) and QPCR performed using the QuantiFAST SYBR green protocol.
All samples were analyzed in duplicates and the mean and standard deviation were determined. Specificity of the amplification was determined by a melting curve ranging from 60-95° C. Normalization to GAPDH was performed using the standard ddCt method.

In a further data set the test system is RPL14a. Kind of data set: Loss of RPL14a on WARS2 over-expression, reversal by proteasome inhibitor. In kind it is cell-based. As to the method: Cells were lysed in cell lysis buffer (9803, Cell Signaling) containing protease inhibitor (Sigma) and phosphatase inhibitor (Halt Phosphase inhibitor Cocktail, Thermo Scientific) and PMSF (0.5 mM Active Motif). Cell lysate was then briefly sonicated and centrifuged for 10 minutes at 14,000 g (4° C.). Supernatants were retained and protein concentrations were determined using the bicinchoninic acid assay with bovine serum albumin standards. Protein samples (20 μg) were separated on 10% or 13% SDS-polyacrylamide gels, transferred to nitrocellulose membranes, and probed with antibodies as described in the figure legends. Immunoreactive bands were visualized with a horseradish peroxidase-conjugated secondary antibody using Peroxide and LumiGlo reagents (Cell Signaling).

In another data set the test system is Wars2. Nature of the data set: In vivo knock down of Wars2 in rat eye using cholesterol modified siRNA. The settings on record: F344 rats; 50 μg intravitreously; 48 hours; versus non-targeting siRNA in contralateral eye. As to the method:
Both non-targeting (NT) siRNA and siWars2 were purchased from Dharmacon and formulated in the sterile siRNA buffer provided. Fifty (50) μg of siWars2 was injected intravitreously into one eye of each of three F344 rats in a total volume of 5 μl. The same dose of the NT control siRNA was injected into the contralateral eye of each animal. Retina and choroid were collected after 48 hours, and total RNA was extracted by Trizol (Ambion). cDNA was then synthesized according to the manufacturer's protocol (BioRad).
Real time PCR reactions to measure Wars2 expression were performed with the SYBRgreen mastermix (Qiagen) and normalized to GAPDH mRNA level by using the following primers: […]

In data set [2] the test system is LASER-induced choroidal neovascularization (CNV). Kind of data set: Rat model of LASER-induced choroidal neovascularization (CNV). In kind it is in vivo. To be noted: Brown Norway rats; bilateral intravitreal injection Day 3 (siRNA 100 μg/eye, Ab 5 μg/eye); fluorescein angiography Day 22. As to the method:
Non-targeting siRNA (negative control), Wars2 siRNA (test agent), and anti-VEGF Ab (positive control) were administered intravitreously into the eyes of Brown Norway female rats aged 6-8 weeks, according to the following design: • Day 1: Bilateral Laser treatment to produce three (3) lesions per eye • Day 3: Bilateral intravitreal injection of negative control, positive control, or test agent • Day 22: In-vivo fluorescein angiography • Day 22: Enucleation of eyes and fixation for future histological analyses • Three (3) groups of five (5) rats were used, as set out in Table 4.
Animals were dilated with 1% Cyclogyl solution and protected from light. Following observable dilation, the animals were sedated with ketamine/xylazine. The fundus of sedated animals was observed and recorded using a Micron III small animal funduscope (Phoenix Research). Laser treatments were performed using a thermal laser which was connected through the Micron III custom laser attachment. […] The resultant fundus images were recorded and evaluated to confirm that the laser had successfully produced a bubble through the Bruch's membrane. […]
All TIFF images were quantified using computerized image-analysis software (ImageJ, NIH, USA). Lesions were then individually traced free-hand in order to quantify the area in pixels and the colour fundus photos were used as a reference for lesion location. […]

Residues, ends and D or L forms follow the SMILES beside them. *: point of attachment. Cbz = O=C(OCc1ccccc1)*

As to `CN=C1NC(=O)[C@H]([C@H](C)c2c[nH]c3ccccc23)O1` [indolmycin], the “inhibition of WARS2 enzyme activity” value in data set [1] was “inhibited human mitochondrial WARS2”. In addition, the “inhibition of WARS enzyme activity” value against human cytosolic WARS is “not human cytosolic WARS activity”.

Consider `C[C@H]1CCC/C=C/[C@@H]2C[C@H](O)C[C@H]2[C@H](O)/C=C/C(=O)O1` [brefeldin A], for which, in the data set with WARS secretion, the “WARS secretion in presence of inhibitor of golgi-mediated secretion” value is “No effect”.

For “siRNA 1: Sense 5′-GCAUUCAACCUACAGGAAU-3′ (SEQ ID NO: 50), antisense 5′-AUUCCUGUAGGUUGAAUGC-3′ (SEQ ID NO: 51) (listed as RNA, chemistry not given here)”, in the data set with human WARS2 mRNA, the “WARS2 mRNA expression, Experiment 1” value was 0.26; the “WARS2 mRNA expression, Experiment 2” value worked out at 0.13; the “WARS2 mRNA expression, Experiment 3” value is 0.18; the “WARS2 mRNA expression, Experiment 4” value is on record as 0.13. In the data set with human WARS2 mRNA, the “WARS2 mRNA expression, Experiment 5” value is recorded as 0.14 and the “WARS2 mRNA expression, Average” value was 0.17.

On to “siRNA 2: Sense 5′-CCGACAUUCUGUUGUACAA-3′ (SEQ ID NO: 52), antisense 5′-UUGUACAACAGAAUGUCGG-3′ (SEQ ID NO: 53) (listed as RNA, chemistry not given here)”, for which, in the data set with human WARS2 mRNA, the “WARS2 mRNA expression, Experiment 1” value was 0.47; the “WARS2 mRNA expression, Experiment 2” value turned out to be 0.14; the “WARS2 mRNA expression, Experiment 3” value is given as 0.13; the “WARS2 mRNA expression, Experiment 4” value was 0.11. For the same compound, in the data set with human WARS2 mRNA, the “WARS2 mRNA expression, Experiment 5” value is 0.09 and the “WARS2 mRNA expression, Average” value is recorded as 0.19.

Turning to “siRNA 3: Sense 5′-GCUGGACAAGGACCAUUUA-3′ (SEQ ID NO: 54), antisense 5′-UAAAUGGUCCUUGUCCAGC-3′ (SEQ ID NO: 55) (listed as RNA, chemistry not given here)”, in the data set with human WARS2 mRNA, the “WARS2 mRNA expression, Experiment 1” value was found to be 0.43; the “WARS2 mRNA expression, Experiment 2” value is 0.22; the “WARS2 mRNA expression, Experiment 3” value was determined as 0.43; the “WARS2 mRNA expression, Experiment 4” value came to 0.37. Besides, in the data set on human WARS2 mRNA, the “WARS2 mRNA expression, Experiment 5” value was determined as 0.30 and the “WARS2 mRNA expression, Average” value turned out to be 0.35.

Turning to `CC(C)C[C@@H](C=O)NC(=O)[C@H](CC(C)C)NC(=O)[C@H](CC(C)C)NC(=O)OCc1ccccc1` [MG132] (Cbz-Leu-Leu-Leu-aldehyde), the “loss of RPL14a caused by over-expression of WARS2” value in the data set with RPL14a is “reversed”.

On to “Wars2 siRNA: Rat Wars2 siRNA from Dharmacon: sense 5′-GCUCCAAUCAGAAGUGAUU-3′ (SEQ ID NO: 48), antisense 5′-UCACUUCUGAUUGGAGCUU-3′ (SEQ ID NO: 49) (cholesterol-modified siRNA, position of cholesterol not given here)”, for which, in the data set with Wars2, the “Wars2 expression in retina and choroid” value is “greater inhibition of Wars2 expression”. Moreover, in data set [2], the extent of neovascularization result was “significant reduction in the extent of neovascularization”.

For the origin of these results see US10160971B2, “Methods of modulating WARS2” (NATIONAL UNIVERSITY OF SINGAPORE, priority 2014, dated 2018).
